Molecular target: T1, TLR9 (Homo sapiens, UniProt Q9NR96)
T1 sequence (Q9NR96 26-1032): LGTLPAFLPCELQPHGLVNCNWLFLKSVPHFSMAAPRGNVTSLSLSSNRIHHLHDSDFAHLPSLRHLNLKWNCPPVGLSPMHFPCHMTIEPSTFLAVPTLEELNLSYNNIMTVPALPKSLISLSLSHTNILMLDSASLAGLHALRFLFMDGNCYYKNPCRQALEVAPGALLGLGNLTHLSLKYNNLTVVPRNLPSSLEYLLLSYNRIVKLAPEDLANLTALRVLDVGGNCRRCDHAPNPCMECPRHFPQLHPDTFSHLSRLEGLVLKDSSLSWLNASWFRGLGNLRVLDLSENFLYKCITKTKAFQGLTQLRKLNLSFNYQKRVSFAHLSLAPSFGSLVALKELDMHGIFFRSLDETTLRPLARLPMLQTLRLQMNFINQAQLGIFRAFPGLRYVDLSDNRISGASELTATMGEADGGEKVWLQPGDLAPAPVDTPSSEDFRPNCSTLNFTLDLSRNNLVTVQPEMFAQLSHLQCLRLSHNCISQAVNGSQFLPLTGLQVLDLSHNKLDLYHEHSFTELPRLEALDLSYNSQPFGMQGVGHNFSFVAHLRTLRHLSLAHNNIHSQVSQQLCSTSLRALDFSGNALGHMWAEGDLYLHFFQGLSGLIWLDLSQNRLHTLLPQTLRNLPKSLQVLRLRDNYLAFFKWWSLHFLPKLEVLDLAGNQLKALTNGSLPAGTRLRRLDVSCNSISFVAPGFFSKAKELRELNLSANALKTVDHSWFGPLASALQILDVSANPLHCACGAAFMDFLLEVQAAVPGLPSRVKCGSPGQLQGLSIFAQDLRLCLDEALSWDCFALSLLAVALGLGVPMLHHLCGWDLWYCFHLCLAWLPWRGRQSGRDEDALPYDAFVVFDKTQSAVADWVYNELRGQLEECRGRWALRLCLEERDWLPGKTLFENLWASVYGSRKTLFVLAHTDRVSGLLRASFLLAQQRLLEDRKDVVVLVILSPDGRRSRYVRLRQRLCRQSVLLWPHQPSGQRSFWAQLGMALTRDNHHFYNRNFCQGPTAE
Assay: HEK293-Blue-hTLR-9 cells assay
Type: cell-based
Set-up: host or cells: HEK293 (HEK-Blue hTLR9)
Settings: HEK293-Blue-hTLR9 cells, ODN2006 stimulation, 20 hrs; read-out: HEK/hTLR9 IC50
Description: A stable HEK293-Blue-hTLR-9 cell line was purchased from InvivoGen (Cat. #: hkb-htlr9, San Diego, California, USA). These cells were originally designed for studying the stimulation of human TLR9 by monitoring the activation of NF-κB. A SEAP (secreted embryonic alkaline phosphatase) reporter gene was placed under the control of the IFN-β minimal promoter fused to five NF-κB and AP-1-binding sites. The SEAP was induced by activating NF-κB and AP-1 via stimulating HEK-Blue hTLR9 cells with TLR9 ligands. Therefore the reporter expression was declined by TLR9 antagonist under the stimulation of a ligand, such as ODN2006 (Cat. #: tlrl-2006-1, Invivogen, San Diego, California, USA), for incubation of 20 hrs. The cell culture supernatant SEAP reporter activity was determined using QiANTI-Blue™ kit (Cat. #: rep-qbl, Invivogen, San Diego, California, USA) at a wavelength of 640 nm, a detection medium that turns purple or blue in the presence of alkaline phosphatase.
HEK293-Blue-hTLR9 cells were incubated at a density of 250,000-450,000 cells/mL in a volume of 170 μL in a 96-well plate in Dulbecco's Modified Eagle's medium (DMEM) containing 4.5 g/L glucose, 50 U/mL penicillin, […], […], 10% (v/v) heat-inactivated fetal bovine serum with addition of 20 μL test compound in a serial dilution in the presence of final DMSO at 1% and 10 μL of 20 μM ODN2006 in above DMEM, perform incubation under 37° C. in a C02 incubator for 20 hrs. Then 20 μL of the supernatant from each well was incubated with 180 μl. Quanti-blue substrate solution at 37° C. for 2 h and the absorbance was read at 620˜655 nm using a spectrophotometer. The signaling pathway that TLR9 activation leads to downstream NF-κB activation has been widely accepted, and therefore similar reporter assay was modified for evaluating TLR9 antagonist.

## Cc1cc(N2CCC(c3ncc(N4CC[C@@H](N)[C@@H](F)C4)cc3C)CC2)c2cnn(C)c2n1 [Example 15, (3S,4R)-1-[6-[1-(1,6-dimethylpyrazolo[3,4-b]pyridin-4-yl)-4-piperidyl]-5-methyl-3-pyridyl]-3-fluoro-piperidin-4-amine]
  IC50: 130 nM

## Cc1cc(N2CC[C@H](c3ccc(N4CCOC[C@@H](N)C4)cn3)[C@@H](C)C2)c2cnn(C)c2n1 [Example 40, (6S)-4-[6-[(3R,4S)-1-(1,6-dimethylpyrazolo[3,4-b]pyridin-4-yl)-3-methyl-4-piperidyl]-3-pyridyl]-1,4-oxazepan-6-amine]
  IC50: 173 nM

## Cc1cc(N2CCNCC2)cnc1C1CCN(c2ccnc3c2cnn3C)CC1 [Example 5, 1-methyl-4-[4-(3-methyl-5-piperazin-1-yl-2-pyridyl)-1-piperidyl]pyrazolo[3,4-b]pyridine]
  IC50: 364 nM

## Cc1cc(N2CCC(c3ccc(N4CCNCC4)nc3C)CC2)c2cnn(C)c2n1 [Example 10, 1,6-dimethyl-4-[4-(2-methyl-6-piperazin-1-yl-3-pyridyl)-1-piperidyl]pyrazolo[3,4-b]pyridine]
  IC50: 212 nM

## Cc1cc(N2CC[C@@H](c3ncc(N4CC5(CNCCO5)C4)cc3C)[C@H](C)C2)c2cnn(C)c2n1 [Example 27, 2-[6-[(3S,4R)-1-(1,6-dimethylpyrazolo[3,4-b]pyridin-4-yl)-3-methyl-4-piperidyl]-5-methyl-3-pyridyl]-5-oxa-2,8-diazaspiro[3.5]nonane]
  IC50: 184 nM

## Cc1cc(N2CCC(c3ncc(N4CCNCC4)cc3C)[C@H](C)C2)c2cnn(C)c2n1 (single isomer, unassigned) [Example 24, 1,6-dimethyl-4-[cis-3-methyl-4-(3-methyl-5-piperazin-1-yl-2-pyridyl)-1-piperidyl]pyrazolo[3,4-b]pyridine]
  IC50: 76 nM

## CO[C@H]1CN(c2ccc([C@H]3CCN(c4cc(C)nc5c4cnn5C)C[C@@H]3C)nc2)CC[C@@H]1N [Example 39, (3S,4S)-1-[6-[(3R,4S)-1-(1,6-dimethylpyrazolo[3,4-b]pyridin-4-yl)-3-methyl-4-piperidyl]-3-pyridyl]-3-methoxy-piperidin-4-amine]
  IC50: 211 nM

## Cc1cc(N2CCC(c3cnc(N4CCNCC4)cc3C)CC2)c2cnn(C)c2n1 [Example 8, 1,6-dimethyl-4-[4-(4-methyl-6-piperazin-1-yl-3-pyridyl)-1-piperidyl]pyrazolo[3,4-b]pyridine]
  IC50: 195 nM

## Cc1cc(N2CC[C@@H](c3ncc(N4CC(C)(N)C4)cc3C)[C@H](C)C2)c2cnn(C)c2n1 [Example 32, 1-[6-[(3S,4R)-1-(1,6-dimethylpyrazolo[3,4-b]pyridin-4-yl)-3-methyl-4-piperidyl]-5-methyl-3-pyridyl]-3-methyl-azetidin-3-amine]
  IC50: 186 nM

## COC[C@H]1CN(c2cnc(C3CCN(c4cc(C)nc5c4cnn5C)CC3)c(C)c2)CCN1 [Example 16, 4-[4-[5-[(3R)-3-(methoxymethyl)piperazin-1-yl]-3-methyl-2-pyridyl]-1-piperidyl]-1,6-dimethyl-pyrazolo[3,4-b]pyridine]
  IC50: 143 nM

## Cc1cc(N2CC[C@H](c3ccc(N4CC[C@@H](N)[C@H](F)C4)cn3)[C@@H](C)C2)c2cnn(C)c2n1 [Example 41, (3R,4R)-1-[6-[(3R,4S)-1-(1,6-dimethylpyrazolo[3,4-b]pyridin-4-yl)-3-methyl-4-piperidyl]-3-pyridyl]-3-fluoro-piperidin-4-amine]
  IC50: 231 nM

## Cc1cc(N2CCC(c3cc(C)c(N4CCNCC4)cn3)CC2)c2cnn(C)c2n1 [Example 9, 1,6-dimethyl-4-[4-(4-methyl-5-piperazin-1-yl-2-pyridyl)-1-piperidyl]pyrazolo[3,4-b]pyridine]
  IC50: 120 nM

## Cc1cc(N2CC[C@@H](c3ncc(N4CC[C@@H](N)[C@H](F)C4)cc3C)[C@H](C)C2)c2cnn(C)c2n1 [Example 31, (3R,4R)-1-[6-[(3S,4R)-1-(1,6-dimethylpyrazolo[3,4-b]pyridin-4-yl)-3-methyl-4-piperidyl]-5-methyl-3-pyridyl]-3-fluoro-piperidin-4-amine]
  IC50: 219 nM

## CO[C@H]1CN(c2cnc(C3CCN(c4cc(C)nc5c4cnn5C)CC3)c(C)c2)CC[C@@H]1N [Example 17, (3S,4S)-1-[6-[1-(1,6-dimethylpyrazolo[3,4-b]pyridin-4-yl)-4-piperidyl]-5-methyl-3-pyridyl]-3-methoxy-piperidin-4-amine]
  IC50: 73 nM

## Cc1cc(N2CCC(c3ncc(N4CCNCC4)cn3)CC2)c2cnn(C)c2n1 [Example 4, 1,6-dimethyl-4-[4-(5-piperazin-1-ylpyrimidin-2-yl)-1-piperidyl]pyrazolo[3,4-b]pyridine]
  IC50: 379 nM

## Cc1cc(N2CCNCC2)ncc1C1CCN(c2ccnc3c2cnn3C)CC1 [Example 6, 1-methyl-4-[4-(4-methyl-6-piperazin-1-yl-3-pyridyl)-1-piperidyl]pyrazolo[3,4-b]pyridine]
  IC50: 208 nM

## COc1cc(N2CCNCC2)cnc1C1CCN(c2cc(C)nc3c2cnn3C)CC1 [Example 14, 4-[4-(3-methoxy-5-piperazin-1-yl-2-pyridyl)-1-piperidyl]-1,6-dimethyl-pyrazolo[3,4-b]pyridine]
  IC50: 225 nM

## CO[C@@H]1CN(c2cnc([C@@H]3CCN(c4cc(C)nc5c4cnn5C)C[C@H]3C)c(C)c2)C[C@H]1N [Example 26, (3R,4R)-1-[6-[(3S,4R)-1-(1,6-dimethylpyrazolo[3,4-b]pyridin-4-yl)-3-methyl-4-piperidyl]-5-methyl-3-pyridyl]-4-methoxy-pyrrolidin-3-amine]
  IC50: 109 nM

## CCc1cc(N2CCNCC2)cnc1C1CCN(c2cc(C)nc3c2cnn3C)CC1 [Example 13, 4-[4-(3-ethyl-5-piperazin-1-yl-2-pyridyl)-1-piperidyl]-1,6-dimethyl-pyrazolo[3,4-b]pyridine]
  IC50: 168 nM

## Cc1cc(N2CCC(c3cnc(N4CCNCC4)cc3C)[C@H](C)C2)c2cnn(C)c2n1 (single isomer, unassigned) [Example 20, 1,6-dimethyl-4-[cis-3-methyl-4-(4-methyl-6-piperazin-1-yl-3-pyridyl)-1-piperidyl]pyrazolo[3,4-b]pyridine]
  IC50: 220 nM

## Cc1cc(N2CCC(c3ncc(N4CCNCC4)nc3C)[C@H](C)C2)c2cnn(C)c2n1 (single isomer, unassigned) [Example 23, 1,6-dimethyl-4-[trans-3-methyl-4-(3-methyl-5-piperazin-1-yl-pyrazin-2-yl)-1-piperidyl]pyrazolo[3,4-b]pyridine]
  IC50: 368 nM

## Cc1cc(N2CC[C@@H](c3ncc(N4C[C@H]5NCCO[C@@H]5C4)cc3C)[C@H](C)C2)c2cnn(C)c2n1 [Example 33, (4aR,7aR)-6-[6-[(3S,4R)-1-(1,6-dimethylpyrazolo[3,4-b]pyridin-4-yl)-3-methyl-4-piperidyl]-5-methyl-3-pyridyl]-3,4,4a,5,7,7a-hexahydro-2H-pyrrolo[3,4-b][1,4]oxazine]
  IC50: 79 nM

## Cc1cc(N2CC[C@H](c3ccc(N4CC(C)(N)C4)cn3)[C@@H](C)C2)c2cnn(C)c2n1 [Example 43, 1-[6-[(3R,4S)-1-(1,6-dimethylpyrazolo[3,4-b]pyridin-4-yl)-3-methyl-4-piperidyl]-3-pyridyl]-3-methyl-azetidin-3-amine]
  IC50: 203 nM

— patent US20240360126A1, “PYRAZOLO[3,4-B]PYRIDINE COMPOUNDS FOR THE TREATMENT OF AUTOIMMUNE DISEASE” (Hoffmann-La Roche Inc., priority 2021, published 2024)
